These are literature values, as cited in patent US20160287599A1, “SUBSTITUTED 1,2,4-TRIAZINE-3,5-DIONES AND THE USE THEREOF AS CHYMASE INHIBITORS” (BAYER PHARMA AKTIENGESELLSCHAFT, priority 2013, published 2016).

For this data set, the system named is chymase. The conditions noted are these: hamsters, myocardial infarction model.

In the case of `CCOc1ccccc1CC1C(=O)N(C(=O)NC(c2ccc(C)cc2)c2ccc(C)cc2)C1Oc1ccc(C(=O)O)cc1` (stereo not drawn) [BCEAB], the chymase activity entry was “reduced”, the haemodynamics result was “improved” and the mortality result is “reduced”.
